The values that follow come from patent US20250197407A1 (Jazz Pharmaceuticals Ireland Limited, priority 2022, published 2025).

Chain of SOS1/KRAS WT (Q07889 564-1049): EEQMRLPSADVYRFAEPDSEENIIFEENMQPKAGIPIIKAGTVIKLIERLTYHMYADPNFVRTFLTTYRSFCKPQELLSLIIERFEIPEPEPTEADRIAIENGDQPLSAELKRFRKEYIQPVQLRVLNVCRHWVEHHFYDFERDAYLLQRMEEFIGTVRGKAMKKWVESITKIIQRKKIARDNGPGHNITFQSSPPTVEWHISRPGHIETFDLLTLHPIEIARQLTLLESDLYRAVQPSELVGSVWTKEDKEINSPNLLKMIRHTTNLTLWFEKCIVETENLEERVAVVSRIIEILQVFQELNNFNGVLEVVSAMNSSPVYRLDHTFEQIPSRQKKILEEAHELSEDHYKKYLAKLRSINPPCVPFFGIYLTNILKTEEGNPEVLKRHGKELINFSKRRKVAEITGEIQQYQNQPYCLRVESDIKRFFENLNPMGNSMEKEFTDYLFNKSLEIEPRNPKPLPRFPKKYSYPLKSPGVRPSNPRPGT

The target in this assay is SOS1/KRAS WT (Homo sapiens (Human), UniProt Q07889). Kind of assay: SOS1/KRAS WT HTRF binding assay (FRET-based protein-protein interaction). The settings on record: inhibition of His6-SOS1 (aa564-1049, 40 nM) binding to GST-KRAS-WT (aa1-188, 40 nM); at least two independent replicates; read-out: SOS1/KRAS WT HTRF Binding assay pIC50 (converted). The method in brief:
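GST-KRAS WT (aa1-188, 40 nM) and His6-SOS1 exchange domain (aa564-1049, 40 nM) were incubated 60 min at room temperature with compound dose response in HEPES pH7.3 buffer with 10 mM EDTA and 100 mM KF. Anti-GST-Eu(K)/anti-6His-XL665 HTRF was read after 4 hr, and IC50 came from a four-parameter fit (≥2 replicates).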
With `COC1(C)C(=O)N(C)c2cc3c(C)nnc(N[C@H](C)c4cccc(C(F)(F)CO)c4C)c3cc21` (stereo partly drawn) [Compound 177, 3-methoxy-1,3,8-trimethyl-5-[[(1R)-1-[3-(1,1-difluoro-2-hydroxy-ethyl)-2-methyl-phenyl]ethyl]amino]pyrrolo[3,2-g]phthalazin-2-one], the IC50 is 9.77 nM.
For `COC1(C)C(=O)N(C)c2cc3c(C)nnc(N[C@H](C)c4cccc(C(F)(F)CO)c4)c3cc21` (stereo partly drawn) [Compound 178, 3-methoxy-1,3,8-trimethyl-5-[[(1R)-1-[3-(1,1-difluoro-2-hydroxy-ethyl)phenyl]ethyl]amino]pyrrolo [3,2-g]phthalazin-2-one] the value was 16.6 nM; for `COC1(C)C(=O)N(C)c2cc3c(C)nnc(N[C@H](C)c4cccc(C(F)(F)C(C)(C)O)c4F)c3cc21` (stereo partly drawn) [Compound 179, 3-methoxy-1,3,8-trimethyl-5-[[(1R)-1-[3-(1,1-difluoro-2-hydroxy-2-methyl-propyl)-2-fluoro-phenyl]ethyl]amino]pyrrolo[3,2-g]phthalazin-2-one], 10.2 nM; for `COC1(C)C(=O)N(C)c2cc3c(C)nnc(N[C@H](C)c4cccc(C(F)(F)C(C)(C)O)c4)c3cc21` (stereo partly drawn) [Compound 180, 3-methoxy-1,3,8-trimethyl-5-[[(1R)-1-[3-(1,1-difluoro-2-hydroxy-2-methyl-propyl)phenyl]ethyl]amino]pyrrolo [3,2-g]phthalazin-2-one], 12 nM.
Take `COC1(C)C(=O)N(C)c2cc3c(N[C@H](C)c4cc(F)cc(C(F)(F)C(C)(C)O)c4C)nnc(C)c3cc21` (stereo partly drawn) [Compound 181, 3-methoxy-1,3,5-trimethyl-8-[[(1R)-1-[3-(1,1-difluoro-2-hydroxy-2-methyl-propyl)-5-fluoro-2-methyl-phenyl]ethyl]amino]pyrrolo[2,3-g]phthalazin-2-one]: the IC50 is 13.2 nM.
For `COC1(C)C(=O)N(C)c2cc3c(N[C@H](C)c4cc(C)cc(C(F)(F)CO)c4C)nnc(C)c3cc21` (stereo partly drawn) [Compound 182, 3-methoxy-1,3,5-trimethyl-8-[[(1R)-1-[3-(1,1-difluoro-2-hydroxy-ethyl)-2,5-dimethyl-phenyl]ethyl]amino]pyrrolo[2,3-g]phthalazin-2-one] the value was 9.77 nM; for `COC1(C)C(=O)N(C)c2cc3c(N[C@H](C)c4cc(F)cc(C(F)(F)CO)c4C)nnc(C)c3cc21` (stereo partly drawn) [Compound 183, 3-methoxy-1,3,5-trimethyl-8-[[(1R)-1-[3-(1,1-difluoro-2-hydroxy-ethyl)-5-fluoro-2-methyl-phenyl]ethyl]amino]pyrrolo[2,3-g]phthalazin-2-one], 11 nM.
Consider `CCOC1(C)C(=O)N(C)c2cc3c(C)nnc(N[C@H](C)c4cccc(C(F)(F)C(C)(C)O)c4)c3cc21` (stereo partly drawn) [Compound 184, 3-ethoxy-1,3,8-trimethyl-5-[[(1R)-1-[3-(1,1-difluoro-2-hydroxy-2-methyl-propyl)phenyl]ethyl]amino]pyrrolo [3,2-g]phthalazin-2-one], for which the IC50 is 14.8 nM.
Under `CCOC1(C)C(=O)N(C)c2cc3c(C)nnc(N[C@H](C)c4cccc(C(F)(F)C(C)(C)O)c4C)c3cc21` (stereo partly drawn) [Compound 185, 3-ethoxy-1,3,8-trimethyl-5-[[(1R)-1-[3-(1,1-difluoro-2-hydroxy-2-methyl-propyl)-2-methyl-phenyl]ethyl]amino]pyrrolo[3,2-g]phthalazin-2-one] stands 24.5 nM.
`Cc1c([C@@H](C)Nc2nnc(C)c3cc4c(cc23)N(C)C(=O)C42CCCC2)cccc1C(F)(F)C(C)(C)O` [Compound 186, 1′,5′-dimethyl-8′-[[(1R)-1-[3-(1,1-difluoro-2-hydroxy-2-methyl-propyl)-2-methyl-phenyl]ethyl]amino]spiro [cyclopentane-1,3′-pyrrolo[2,3-g]phthalazine]-2′-one]: the IC50 was 8.32 nM.
On to `Cc1nnc(N[C@H](C)c2cc(F)cc(C(F)(F)CO)c2)c2cc3c(cc12)C1(CCCC1)C(=O)N3C` [Compound 187, 1′,5′-dimethyl-8′-[[(1R)-1-[3-(1,1-difluoro-2-hydroxy-ethyl)-5-fluoro-phenyl]ethyl]amino]spiro [cyclopentane-1,3′-pyrrolo[2,3-g]phthalazine]-2′-one], for which the IC50 is 21.9 nM.
In the case of `Cc1nnc(N[C@H](C)c2cccc(C(F)(F)C(C)(C)O)c2)c2cc3c(cc12)C1(CCCC1)C(=O)N3C` [Compound 188, 1′,5′-dimethyl-8′-[[(1R)-1-[3-(1,1-difluoro-2-hydroxy-2-methyl-propyl)phenyl]ethyl]amino]spiro [cyclopentane-1,3′-pyrrolo[2,3-g]phthalazine]-2′-one], the IC50 is 9.33 nM.
Under `Cc1nnc(N[C@H](C)c2cccc(C(F)(F)CO)c2F)c2cc3c(cc12)C1(CCCC1)C(=O)N3C` [Compound 189, 1′,5′-dimethyl-8′-[[(1R)-1-[3-(1,1-difluoro-2-hydroxy-ethyl)-2-fluoro-phenyl]ethyl]amino]spiro[cyclopentane-1,3′-pyrrolo[2,3-g]phthalazine]-2′-one] stands 6.76 nM; under `CCOC1(C)C(=O)N(C)c2cc3c(C)nnc(N[C@H](C)c4cccc(C(F)(F)C(C)(C)O)c4F)c3cc21` (stereo partly drawn) [Compound 190, 3-ethoxy-1,3,8-trimethyl-5-[[(1R)-1-[3-(1,1-difluoro-2-hydroxy-2-methyl-propyl)-2-fluoro-phenyl]ethyl]amino]pyrrolo[3,2-g]phthalazin-2-one], 16.6 nM.
Under `CCC1(OC)C(=O)N(C)c2cc3c(C)nnc(N[C@H](C)c4cccc(C(F)(F)C(C)(C)O)c4C)c3cc21` (stereo partly drawn) [Compound 191, 5-[[(1R)-1-[3-(1,1-difluoro-2-hydroxy-2-methyl-propyl)-2-methyl-phenyl]ethyl]amino]-3-ethyl-3-methoxy-1,8-dimethyl-pyrrolo[2,3-g]phthalazin-2-one] stands 23.4 nM; under `CCC1(OC)C(=O)N(C)c2cc3c(C)nnc(N[C@H](C)c4cccc(C(F)(F)C(C)(C)O)c4)c3cc21` (stereo partly drawn) [Compound 192, 5-[[(1R)-1-[3-(1,1-difluoro-2-hydroxy-2-methyl-propyl)phenyl]ethyl]amino]-3-ethyl-3-methoxy-1,8-dimethyl-pyrrolo[2,3-g]phthalazin-2-one], 16.2 nM; under `Cc1c([C@@H](C)Nc2nnc(C)c3cc4c(cc23)N(C)C(=O)C42CCCC2)cccc1C(F)(F)CO` [Compound 193, 1′,5′-dimethyl-8′-[[(1R)-1-[3-(1,1-difluoro-2-hydroxy-ethyl)-2-methyl-phenyl]ethyl]amino]spiro[cyclopentane-1,3′-pyrrolo[2,3-g]phthalazine]-2′-one], 8.71 nM.
Under `Cc1nnc(N[C@H](C)c2cccc(C(F)(F)C(C)(C)O)c2F)c2cc3c(cc12)C1(CCCC1)C(=O)N3C` [Compound 194, 1′,5′-dimethyl-8′-[[(1R)-1-[3-(1,1-difluoro-2-hydroxy-2-methyl-propyl)-2-fluoro-phenyl]ethyl]amino]spiro [cyclopentane-1,3′-pyrrolo[2,3-g]phthalazine]-2′-one] stands 8.51 nM; under `CCOC1(C)C(=O)N(C)c2cc3c(C)nnc(N[C@H](C)c4cccc(C(F)(F)CO)c4)c3cc21` (stereo partly drawn) [Compound 195, 3-ethoxy-1,3,8-trimethyl-5-[[(1R)-1-[3-(1,1-difluoro-2-hydroxy-ethyl)phenyl]ethyl]amino]pyrrolo [3,2-g]phthalazin-2-one], 20.9 nM.
Consider `CCC1(OC)C(=O)N(C)c2cc3c(C)nnc(N[C@H](C)c4cccc(C(F)(F)CO)c4)c3cc21` (stereo partly drawn) [Compound 196, 5-[[(1R)-1-[3-(1,1-difluoro-2-hydroxy-ethyl)phenyl]ethyl]amino]-3-ethyl-3-methoxy-1,8-dimethyl-pyrrolo[2,3-g]phthalazin-2-one], for which the IC50 was 25.1 nM.
With `CCC1(OC)C(=O)N(C)c2cc3c(C)nnc(N[C@H](C)c4cccc(C(F)(F)CO)c4F)c3cc21` (stereo partly drawn) [Compound 197, 5-[[(1R)-1-[3-(1,1-difluoro-2-hydroxy-ethyl)-2-fluoro-phenyl]ethyl]amino]-3-ethyl-3-methoxy-1,8-dimethyl-pyrrolo[2,3-g]phthalazin-2-one], the IC50 is 14.5 nM.
Under `CCC1(OC)C(=O)N(C)c2cc3c(C)nnc(N[C@H](C)c4cccc(C(F)(F)CO)c4C)c3cc21` (stereo partly drawn) [Compound 198, 5-[[(1R)-1-[3-(1,1-difluoro-2-hydroxy-ethyl)-2-methyl-phenyl]ethyl]amino]-3-ethyl-3-methoxy-1,8-dimethyl-pyrrolo[2,3-g]phthalazin-2-one] stands 19.5 nM.
Under `CCOC1(C)C(=O)N(C)c2cc3c(C)nnc(N[C@H](C)c4cccc(C(F)(F)CO)c4C)c3cc21` (stereo partly drawn) [Compound 199, 3-ethoxy-1,3,8-trimethyl-5-[[(1R)-1-[3-(1,1-difluoro-2-hydroxy-ethyl)-2-methyl-phenyl]ethyl]amino]pyrrolo[3,2-g]phthalazin-2-one] stands 21.9 nM; under `CCc1nnc(N[C@H](C)c2cccc(C(F)(F)C(C)(C)O)c2F)c2cc3c(cc12)C(C)(OC)C(=O)N3C` (stereo partly drawn) [Compound 200, 5-ethyl-3-methoxy-1,3-dimethyl-8-[[(1R)-1-[3-(1,1-difluoro-2-hydroxy-2-methyl-propyl)-2-fluoro-phenyl]ethyl]amino]pyrrolo[2,3-g]phthalazin-2-one], 13.2 nM; under `CCOC1(C)C(=O)N(C)c2cc3c(C)nnc(N[C@H](C)c4cccc(C(F)(F)CO)c4F)c3cc21` (stereo partly drawn) [Compound 201, 3-ethoxy-1,3,8-trimethyl-5-[[(1R)-1-[3-(1,1-difluoro-2-hydroxy-ethyl)-2-fluoro-phenyl]ethyl]amino]pyrrolo[3,2-g]phthalazin-2-one], 18.2 nM.
Under `CCC1(OC)C(=O)N(C)c2cc3c(N[C@H](C)c4cccc(C(F)(F)C(C)(C)O)c4)nnc(C)c3cc21` (stereo partly drawn) [Compound 202, 3-ethyl-3-methoxy-1,5-dimethyl-8-[[(1R)-1-[3-(1,1-difluoro-2-hydroxy-2-methyl-propyl)phenyl]ethyl]amino]pyrrolo [2,3-g]phthalazin-2-one] stands 10.7 nM.
